From patent publication US6773733B2, “Structured particulate systems” (Loders Croklaan USA LLC, priority 2001, dated 2004)

Columns and labels:
Format in all cases: physicochemical
[1] = Comparative homogeneity test in vegetable oil; conditions: added to 1 kg of vegetable oil, mixed for 5 minutes, continuous visual inspection
Method: Comparative homogeneity test of structured particulate Folic Acid with non-structured active particulate component: 1. 10 milligrams of non-structured active particulate component Folic Acid is added to 1 kg of vegetable oil and 40 milligrams of structured particulate Folic Acid (25%) to another 1 kg of vegetable oil. 2. Each sample is mixed for 5 minutes with continuous visual inspection for homogeneity.

[2] = Mean weight diameter by screen analysis; conditions: weight fraction at screen multiplied by screen opening, summed for all screen sizes
Method: Folic acid is used as the active component It has a mean weight diameter of 246 microns and a loose bulk density of 0.2 g/cc. The mean weight diameters is calculated as follows: weight fraction at screen multiplied by screen opening (microns), summed for all screen sizes.

Loose bulk density = test: Loose bulk density
From the text: Loose bulk density being measured by measuring the volume of a known mass powder sample, that has passed through a screen into a gradulated cylinder. The procedure is described in USP<616<Bulk Density and Tapped Density.

- mean weight diameter [2]: 246 microns
- loose bulk density (Loose bulk density): 0.2 g/cc
Compound: Nc1nc2ncc(CNc3ccc(C(=O)N[C@@H](CCC(=O)O)C(=O)O)cc3)nc2c(=O)[nH]1 [Folic acid]
- homogeneity / dispersion by visual inspection [1]: clumps together and sticks to the container walls
